Assay: Body weight monitoring during the in vivo experiment
Design: species or system dogs
Conditions: entire experiment (180 days)
Procedure: After each surgical procedure each dog received marbofloxacin 2% (1 mg/kg body weight) during 4 days. The body weight of all dogs was monitored during the entire experiment. Data are expressed as mean±SEM. Data were analyzed using one way analysis of variance (ANOVA), followed by the Bonferroni test or Kruskal-Wallis analysis and Dunnett T3. P≦0.05 was considered significant.

Question: With `C[C@H](CCC(=O)O)[C@H]1CC[C@H]2[C@@H]3[C@@H](O)C[C@@H]4C[C@H](O)CC[C@]4(C)[C@H]3CC[C@]12C` [UDCA, ursodeoxycholic acid] as the compound, how does the “body weight of the dogs over time” value read?
Answer: The value was “gained or lost no body weight over time”.

— patent US9901609B2, “Medicinal plant extract” (UNIVERSITY OF ANTWERP, priority 2013, dated 2018)
